Laboratory results as given in patent publication US9915647B2 (priority 2011, dated 2018).

Assays:
V79-G3 cells = assay type: cell-based, Chinese hamster
HEK293 cells = assay type: cell-based, human

Structure (SMILES)	increase in respiration over the basal level (V79-G3 cells) [%]	inhibition of ADP-stimulated respiration (HEK293 cells)	rotenone sensitivity of glutamate+malate-supported respiration (V79-G3 cells)
Nc1ncnc2c1ncn2[C@@H]1O[C@H](COP(=O)(O)OP(=O)(O)O)[C@@H](O)[C@H]1O [ADP, adenosine diphosphate]	~20		
C=C(C)[C@H]1Cc2c(ccc3c2O[C@@H]2COc4cc(OC)c(OC)cc4[C@@H]2C3=O)O1 [rotenone]		dose-dependently	sensitive to rotenone
